One test addresses T1, human TLR8 (Homo sapiens, UniProt Q9NR97).
T1 construct: host or cells: HEK293 NF-kB reporter cells
T1 sequence (Q9NR97 27-1041): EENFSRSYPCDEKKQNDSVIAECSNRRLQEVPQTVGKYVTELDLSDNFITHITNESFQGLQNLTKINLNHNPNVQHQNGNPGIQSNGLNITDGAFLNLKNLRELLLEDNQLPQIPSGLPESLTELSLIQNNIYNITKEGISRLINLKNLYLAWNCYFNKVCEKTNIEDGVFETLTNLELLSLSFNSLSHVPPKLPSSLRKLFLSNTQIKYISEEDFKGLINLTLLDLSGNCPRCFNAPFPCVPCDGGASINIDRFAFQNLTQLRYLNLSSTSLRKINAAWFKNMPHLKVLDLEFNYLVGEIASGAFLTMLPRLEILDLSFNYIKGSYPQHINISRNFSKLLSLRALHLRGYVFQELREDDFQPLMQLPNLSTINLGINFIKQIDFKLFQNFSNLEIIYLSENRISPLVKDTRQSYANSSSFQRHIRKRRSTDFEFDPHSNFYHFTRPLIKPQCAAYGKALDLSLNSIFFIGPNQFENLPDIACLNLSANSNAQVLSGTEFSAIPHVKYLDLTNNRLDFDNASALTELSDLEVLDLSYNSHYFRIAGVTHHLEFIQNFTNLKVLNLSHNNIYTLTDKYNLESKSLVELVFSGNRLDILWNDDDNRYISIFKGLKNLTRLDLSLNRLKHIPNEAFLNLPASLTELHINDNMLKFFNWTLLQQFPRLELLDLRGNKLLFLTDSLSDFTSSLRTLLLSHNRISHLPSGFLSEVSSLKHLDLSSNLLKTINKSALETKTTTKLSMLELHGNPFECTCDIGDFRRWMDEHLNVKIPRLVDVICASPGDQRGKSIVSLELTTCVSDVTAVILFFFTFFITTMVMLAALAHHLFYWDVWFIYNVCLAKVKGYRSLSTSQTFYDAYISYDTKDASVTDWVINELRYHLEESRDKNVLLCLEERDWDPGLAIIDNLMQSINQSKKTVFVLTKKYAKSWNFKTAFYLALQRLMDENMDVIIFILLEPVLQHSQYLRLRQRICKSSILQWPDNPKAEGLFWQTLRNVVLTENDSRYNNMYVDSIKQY
The experiment in a line: HEK Reporter Assay, HEK293 NFKB reporter cells expressing human TLR8. It counts as cell-based. Conditions: read-out: HEK293 hTLR8 EC50. As to the method: (§1) Each compound was synthesized, purified, and characterized by mass spectrometry and shown to have the mass indicated. Additional experimental procedures are found in the Examples. Activity against Human Embryonic Kidney (HEK) 293 NFKB reporter cells expressing human TLR7 or human TLR8 was measured according to Example 202.
(§2) Human Embryonic Kidney (HEK293) reporter cells expressing human TLR7 or human TLR8 (InvivoGen, San Diego Calif.), were used with vendor protocols for cellular propagation and experimentation. Briefly, cells were grown to 80-85% confluence at 5% CO2 in DMEM supplemented with 10% FBS, ZEOCIN™, and Blasticidin. Cells were then seeded in 96-well flat plates at 4×10^4 cells/well with substrate containing HEK detection medium and immunostimulatory molecules.
(In general: Reporter assays use an easily measured gene product as a stand-in for the process of interest.)

In another test the target is T2, human TLR7 (Homo sapiens, UniProt Q9NYK1).
T2 construct: host or cells: HEK293 NF-kB reporter cells
T2 sequence (Q9NYK1 27-1049): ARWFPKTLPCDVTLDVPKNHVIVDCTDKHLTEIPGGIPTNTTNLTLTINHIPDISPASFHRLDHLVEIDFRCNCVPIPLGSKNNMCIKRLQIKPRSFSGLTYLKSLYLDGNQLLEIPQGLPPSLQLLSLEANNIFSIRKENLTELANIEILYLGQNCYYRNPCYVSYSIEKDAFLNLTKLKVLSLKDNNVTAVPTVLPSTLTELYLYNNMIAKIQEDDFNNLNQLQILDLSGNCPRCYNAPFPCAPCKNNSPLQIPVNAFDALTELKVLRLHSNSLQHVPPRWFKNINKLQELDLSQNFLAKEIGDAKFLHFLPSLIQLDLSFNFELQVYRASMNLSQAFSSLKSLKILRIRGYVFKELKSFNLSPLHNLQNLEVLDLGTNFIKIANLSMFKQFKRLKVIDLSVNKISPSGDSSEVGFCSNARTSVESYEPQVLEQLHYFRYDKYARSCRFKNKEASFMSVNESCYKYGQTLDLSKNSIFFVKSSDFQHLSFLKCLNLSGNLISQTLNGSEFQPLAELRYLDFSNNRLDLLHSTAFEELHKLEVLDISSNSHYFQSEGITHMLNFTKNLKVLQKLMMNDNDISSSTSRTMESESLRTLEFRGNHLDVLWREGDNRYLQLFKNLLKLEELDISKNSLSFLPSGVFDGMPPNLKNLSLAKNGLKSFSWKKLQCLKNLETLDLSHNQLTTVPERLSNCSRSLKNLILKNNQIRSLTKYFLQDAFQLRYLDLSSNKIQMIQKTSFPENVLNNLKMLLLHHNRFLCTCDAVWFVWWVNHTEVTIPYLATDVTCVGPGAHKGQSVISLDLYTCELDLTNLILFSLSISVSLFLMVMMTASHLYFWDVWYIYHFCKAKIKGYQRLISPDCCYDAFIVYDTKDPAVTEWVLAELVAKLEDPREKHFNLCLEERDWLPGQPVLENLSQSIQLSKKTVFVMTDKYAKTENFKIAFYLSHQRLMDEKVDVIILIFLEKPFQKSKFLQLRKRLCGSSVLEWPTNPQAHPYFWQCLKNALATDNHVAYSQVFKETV
The experiment in a line: HEK Reporter Assay, HEK293 NFKB reporter cells expressing human TLR7. It counts as cell-based. As to conditions: read-out: HEK293 hTLR7 EC50. As to the method:
as §1, §2

As usually defined, the EC50 is the concentration needed to bring the measured effect to its halfway point. Regarding `CCCN(OCCNC(=O)N1CCOCC1)C(=O)C1=Cc2ccc(-c3cnc(CN)nc3)cc2N=C(N)C1` [HxBz-23], the values for the EC50 at human TLR8 and at human TLR7 were 6180 nM and 6880 nM, respectively.
The matching figures for `CCCN(OCC(C)C)C(=O)C1=Cc2ccc(-c3cnc(CN)nc3)cc2N=C(N)C1` [HxBz-31]: 358 nM and 763 nM.
The corresponding values for `CCCN(CCCNC(=O)OC1CCC1)C(=O)C1=Cc2ccc(-c3cnc(CN)nc3)cc2N=C(N)C1` [HxBz-13, cyclobutyl N-[3-[[2-amino-8-[2-(aminomethyl)pyrimidin-5-yl]-3H-1-benzazepine-4-carbonyl]-propyl-amino]propyl]carbamate] are 274 nM and 242 nM.
The matching figures for `CCCN(OCc1ccn[nH]1)C(=O)C1=Cc2ccc(-c3cnc(CN)nc3)cc2N=C(N)C1` [HxBz-41, 2-amino-8-[2-(aminomethyl)pyrimidin-5-yl]-N-propyl-N-(1H-pyrazol-5-ylmethoxy)-3H-1-benzazepine-4-carboxamide]: 128 nM and 3930 nM.
Regarding `CCCN(CCCNC(=O)OC1CCC1)C(=O)C1=Cc2ccc(-c3ccc(CN)nc3)cc2N=C(N)C1` [HxBz-38], the EC50 on human TLR8 worked out at 153 nM; on human TLR7, 56 nM.
For `CCCN(OCC)C(=O)C1=Cc2ccc(-c3ccc(C(=O)OC)nn3)cc2N=C(N)C1` [HxBz-6], the EC50 at human TLR8 amounted to 339 nM; at human TLR7, 2660 nM.
In the case of `CCCN(OCC)C(=O)C1=Cc2ccc(-c3cccnn3)cc2N=C(N)C1` [HxBz-2], the EC50 on human TLR8 was found to be 276 nM; on human TLR7 it was 2240 nM.
Turning to `CCCN(OCCNC(=O)OC1CCC1)C(=O)C1=Cc2ccc(-c3ccc(CN)nc3)cc2N=C(N)C1` [HxBz-47], the EC50 at human TLR8 came to 12 nM; at human TLR7, 35 nM.
For `CCCN(OCC)C(=O)C1=Cc2ccc(-c3cnc(C#N)nc3)cc2N=C(N)C1` [HxBz-1], the figures for the EC50 at human TLR8 and on human TLR7 were 163 nM and 2540 nM, respectively.
Turning to `CCCN(OCC)C(=O)C1=Cc2ccc(-c3cnc(C(=O)OC)nc3)cc2N=C(N)C1` [HxBz-11, methyl 5-(2-amino-4-(ethoxy(propyl)carbamoyl)-3H-benzo[b]azepin-8-yl)pyrimidine-2-carboxylate], the EC50 at human TLR8 was 161 nM; at human TLR7, 4070 nM.
The corresponding values for `CCCN(OCC)C(=O)C1=Cc2ccc(-c3ccc(CN)nc3)cc2N=C(N)C1` [HxBz-36, 2-amino-8-[6-(aminomethyl)-3-pyridyl]-N-ethoxy-N-propyl-3H-1-benzazepine-4-carboxamide] are 54 nM and 439 nM.
`CCCN(OCC1COC(=O)N1)C(=O)C1=Cc2ccc(-c3cnc(CN)nc3)cc2N=C(N)C1` (centres unmarked) [HxBz-46]: the concentration giving a half-maximal response (EC50) on human TLR8 amounted to 3580 nM.
In the case of `CCCN(CCCNC(=O)OC(C)C)C(=O)C1=Cc2ccc(-c3cnc(CN)nc3)cc2N=C(N)C1` [HxBz-29], the EC50 came to 296 nM on human TLR8 and 134 nM on human TLR7.
In the case of `CCCN(CCCNC(=O)OC(C)C)C(=O)C1=Cc2ccc(-c3cncc(S(=O)(=O)N4CC(CN)C4)c3)cc2N=C(N)C1` [HxBz-33], the EC50 at human TLR8 worked out at 2880 nM; at human TLR7 it was 7630 nM.
As for `CCCN(CCCOC(=O)NC1CCC1)C(=O)C1=Cc2ccc(-c3cnc(CN)nc3)cc2N=C(N)C1` [HxBz-45, 3-[[2-amino-8-[2-(aminomethyl)pyrimidin-5-yl]-3H-1-benzazepine-4-carbonyl]-propyl-amino]propyl N-cyclobutylcarbamate], the 50% effective concentration (EC50) at human TLR8 stood at 325 nM; on human TLR7, 825 nM.
`CCCN(CC1CNC(=O)O1)C(=O)C1=Cc2ccc(-c3cnc(CN)nc3)cc2N=C(N)C1` (centres unmarked) [HxBz-25]: on human TLR8, the EC50 came out at 3160 nM.
In the case of `CCCN(OC(C)C)C(=O)C1=Cc2ccc(-c3cnc(CN)nc3)cc2N=C(N)C1` [HxBz-30], the figures for the EC50 at human TLR8 and on human TLR7 were 40 nM and 393 nM, respectively.
Regarding `CCCN(OCCNC(=O)NCC)C(=O)C1=Cc2ccc(-c3cnc(CN)nc3)cc2N=C(N)C1` [HxBz-28], the EC50 worked out at 2930 nM on human TLR8 and 3770 nM on human TLR7.
The matching figures for `CCCN(OCC)C(=O)C1=Cc2ccc(-c3cncc(S(=O)(=O)N4CC(CN)C4)c3)cc2N=C(N)C1` [HxBz-7, 2-amino-8-[5-[3-(aminomethyl)azetidin-1-yl]sulfonyl-3-pyridyl]-N-ethoxy-N-propyl-3H-1-benzazepine-4-carboxamide]: 335 nM and 3630 nM.
Consider `CCCN(OCCNC(=O)NC1CCC1)C(=O)C1=Cc2ccc(-c3cnc(CN)nc3)cc2N=C(N)C1` [HxBz-16, 2-amino-8-[2-(aminomethyl)pyrimidin-5-yl]-N-[2-(cyclobutylcarbamoylamino)ethoxy]-N-propyl-3H-1-benzazepine-4-carboxamide], for which the concentration giving a half-maximal response (EC50) at human TLR8 amounted to 399 nM; on human TLR7, 4600 nM.
With `CCCN(C(=O)C1=Cc2ccc(-c3cnc(CN)nc3)cc2N=C(N)C1)[C@H]1C[C@H](NC(=O)OC2CCC2)C1` [HxBz-44], on human TLR8, the EC50 is 6350 nM.
For the compound `CCCN(CCCNC(=O)OC1CCC1)C(=O)C1=Cc2ccc(-c3cncc(CN)c3)cc2N=C(N)C1` [HxBz-40], the EC50 at human TLR8 stood at 755 nM; at human TLR7, 357 nM.
For `CCCN(OCC)C(=O)C1=Cc2ccc(-c3ncc(CN)cn3)cc2N=C(N)C1` [HxBz-10], on human TLR8, the EC50 is 814 nM.
In the case of `CCCN(OCCO)C(=O)C1=Cc2ccc(-c3cncc(S(=O)(=O)N4CC(CN)C4)c3)cc2N=C(N)C1` [HxBz-43], the EC50 at human TLR8 amounted to 6160 nM.
`CCCN(OCC)C(=O)C1=Cc2ccc(-c3cnc(N4CCN(C(=O)OC(C)(C)C)CC4)nc3)cc2N=C(N)C1` [HxBz-4, tert-butyl 4-[5-[2-amino-4-[ethoxy (propyl)carbamoyl]-3H-1-benzazepin-8-yl]pyrimidin-2-yl]piperazine-1-carboxylate]: the values for the EC50 on human TLR8 and at human TLR7 were 350 nM and 3260 nM, respectively.
The corresponding values for `CCCN(OCC)C(=O)C1=Cc2ccc(-c3cnc(N4CCNCC4)nc3)cc2N=C(N)C1` [HxBz-3, 2-amino-N-ethoxy-8-(2-piperazin-1-ylpyrimidin-5-yl)-N-propyl-3H-1-benzazepine-4-carboxamide] are 43 nM and 562 nM.
As to `CCCN(OCC)C(=O)C1=Cc2ccc(-c3cnnc(CN)c3)cc2N=C(N)C1` [HxBz-48], the EC50 on human TLR8 was 2160 nM.
As for `CCCN(OCC)C(=O)C1=Cc2ccc(-c3cncc(CN)c3)cc2N=C(N)C1` [HxBz-39, 2-amino-8-(5-(aminomethyl)pyridin-3-yl)-N-ethoxy-N-propyl-3H-benzo[b]azepine-4-carboxamide], the EC50 stood at 65 nM on human TLR8 and 1780 nM at human TLR7.

These data come from patent publication US20220195066A1, “ANTI-CEA IMMUNOCONJUGATES, AND USES THEREOF” (BOLT BIOTHERAPEUTICS, INC., priority 2020, published 2022).
